Test results from PMC2585982 (Toxicology and applied pharmacology, 2008).

How the values were obtained:
human PXR = conditions: read-out: EC50, activation of human PXR; ref Yang and Yan, 2007; cited from earlier work
rat PXR = conditions: read-out: EC50, activation of rat PXR; ref Yang and Yan, 2007; cited from earlier work
P450 3A11 = assay: Liver microsomal P450 3A activity; assay type: in vivo, mice; conditions: mouse, in vivo
P450 1A1/1A2 = conditions: mouse, in vivo
P450s 2B9/10 [1] = conditions: mouse, in vivo; cited from earlier work
[2] = tested on: GST (cumene hydroperoxide); assay: Liver GST activity, cumene hydroperoxide as substrate, after oral dosing of mice; assay type: in vivo; conditions: female SENCAR mice, even at the highest doses, data not shown
GSTμ = assay: Western blot of liver cytosol, GSTμ protein expression; assay type: in vivo, mice; conditions: SENCAR mice, 35, 70, 150 mg/kg p.o.
P450 2B = conditions: cited from earlier work
GSTα = assay: Western blot of liver cytosol, GSTα protein expression; assay type: in vivo; conditions: SENCAR mice, 35, 70, 150 mg/kg p.o., particularly at the highest doses
P450s 1A1/2 = assay: Liver microsomal P450 1A activity; assay type: in vivo, mice; conditions: mouse, in vivo
NQO = assay: Liver cytosolic NQO activity; assay type: in vivo, mice; conditions: female SENCAR mice, 35, 70, 150 mg/kg p.o. 4 days, vs corn oil
P450 2B10 = conditions: mouse, in vivo
GSTπ = assay: Western blot of liver cytosol, GSTπ protein expression; assay type: in vivo; conditions: SENCAR mice, 35, 70, 150 mg/kg p.o.
P450s 2B9/10 [3] = assay: Liver microsomal P450 2B activity; assay type: in vivo, mice; conditions: mouse, in vivo

For `COc1c2occc2cc2ccc(=O)oc12` [8-methoxypsoralen], the EC50 (human PXR) is listed as 14 µM and the EC50 (rat PXR) is listed as 14 µM.
In the case of `CC(C)=CCOc1c2occc2cc2ccc(=O)oc12` [imperatorin], the “P450 3A activity, liver microsomes, dose-response study” value (P450 3A11) is listed as “increased”, the “P450 1A1/1A2 protein levels, dose-response study” value (P450 1A1/1A2) is listed as “elevated” and the “Hepatic P450 2B9/10 activity at 1 h after the final dose” value (P450s 2B9/10 [1]) is listed as “no elevation”. The “Increase in hepatic P450 2B9/10 activity at 24 h after the final dose” value (P450s 2B9/10 [1]) was 100 fold, the “GST activity using cumene hydroperoxide as a substrate” value [2] was “no differences” and the “Hepatic expression of GST μ protein, dose-response study” value (GSTμ) was “no increase”. For the same molecule, the “Potency at blocking P450 2B activity relative to isopimpinellin” value (P450 2B) was 10–100 times, the “Hepatic expression of GST α protein, dose-response study” value (GSTα) was “greatly increased” and the “P450 1 activity, liver microsomes, dose-response study” value (P450s 1A1/2) was “significant increases”. For the same molecule, the “Liver cytosolic NQO activity, dose-response study” value (NQO) was “increased at all doses”, the “Increase in P450 2B9/10 protein expression (optical density), dose-response study” value (P450 2B10) was 1.5–2 fold and the “P450 2B10 protein levels, dose-response study” value (P450 2B10) was “significantly elevated”. For the same molecule, the “Hepatic expression of GST π protein, dose-response study” value (GSTπ) was “modest increase”, the “Increase in P450 2B9/10 enzyme activity, dose-response study” value (P450s 2B9/10 [3]) was ~ 100 fold and the “P450 2B activity, liver microsomes, dose-response study” value (P450s 2B9/10 [3]) was “significant increases”.
